According to patent publication US20110136880A1, “Latrunculin-Based Macrolides and Their Uses” (priority 2009, published 2011):
Where two headings read alike, the source gives them in different places.

Legend:
MCF7 = test: MTT proliferation assay, MCF7; type: cell-based, human; conditions: for IC50: Homo sapiens, MCF7, MTT, 72 h, mean ± SEM, read-out: IC50 (μM) MCF7
Excerpt: (§1) The antiproliferative and anti-invasive activities of compounds 1-14 were quantified using MTT and cell invasion assay kits, respectively. Latrunculin A (compound 1) was used as a positive control in all biological assays, because it is known to be an actin polymerization inhibitor, with cytotoxic, antiproliferative, and anti-invasive activities. The 3-[4,5-dimethylthiazol-2-yl]-2,5-diphenyl tetrazolium bromide (MTT) assay selectively detects living cells in a quantitative, colorimetric fashion, based on a living cell's ability to reduce MTT to an insoluble, purple formazan dye. The MTT assay is routinely used to assess cytotoxicity and proliferation inhibition activities. The antiproliferative activities of compounds 1-14 were measured against two human mammary gland adenocarcinoma cell lines, MCF7 and MDA-MB-231, and against human prostate cancer cells PC-3 at five different doses (0.1, 0.5, 1, 10, and 50 μM). While many of the semisynthetic latrunculins had similar activity levels, some had greater activity than compound 1. […] Although the MDA-MB-231 cells were more resistant than MCF7 against most latrunculin derivatives tested, compound 14 had potent activity against both cell lines.
(§2) MTT Proliferation Assay. The growth of MCF7, MDA-MB-231, and PC-3 cancer cell lines was measured using an MTT kit (TACS™, TREVIGEN®, Inc.). Exponentially growing cells were plated in a 96-well plate at a density of 8×10^3 cells per well, and allowed to attach for 24 h. Complete growth medium was then replaced with 100 μL of RPMI serum-free medium containing various concentrations (50, 10, 1, 0.5, 0.1 μM) of the particular test compound. Culture continued at 37° C. under 5% CO2. After 72 h of culture, the cells were treated with MTT solution (10 μL/well) at 37° C. for 4 h. The color reaction was stopped by adding solubilization/stop solution (100 μL/well). Incubation continued at 37° C. continued to completely dissolve the formazan dye product. Absorbance of the samples was determined at 570 nm with an ELISA plate reader (BioTek, VT). The number of cells per well was calculated against a standard curve that had been prepared by plating various concentrations of cells, as determined by hemocytometer, at the start of each experiment. IC50 for each compound was calculated using a nonlinear regression curve fit of log concentration versus the number of cells/well, using GraphPad Prism 5.0 (GraphPad Software, La Jolla, Calif.).

PC-3 = test: MTT proliferation assay, PC-3; type: cell-based, human; conditions: for IC50: Homo sapiens, PC-3, MTT, 72 h, read-out: IC50 (μM) PC-3
Excerpt: as §1, §2

MDA-MB-231 = test: MTT proliferation assay, MDA-MB-231; type: cell-based, human; conditions: for IC50: Homo sapiens, MDA-MB-231, MTT, 72 h, mean ± SEM, read-out: IC50 (μM) MDA-MB-231
Excerpt: as §1, §2

MDA-MB-231 cells = test: Cultrex BME cell invasion assay; type: cell-based, human; conditions: for fold more active against cell invasion than latrunculin A (compound 1): 0.5 μM
Description: The anti-invasive activities of compounds 1-14 were measured using a 96 well basement membrane extract (BME) cell invasion assay kit against the highly metastatic MDA-MB-231 cells. This assay employs a simplified Boyden Chamber with a polyethylene terephthalate membrane (8 μm pore size). Cell invasion was quantified using calcein-acetomethylester (calcein-AM). Cells internalize calcein-AM; intracellular esterases then cleave the acetomethylester moiety to generate free calcein. Free calcein fluoresces brightly. This fluorescence may be used to quantify the number of cells that have invaded across the BME. To correlate the anti-invasive activities of the latrunculin A derivatives with their actin-disrupting activities, compounds 1-14 were each tested at non-toxic concentrations. […] Accordingly, all compounds were tested at 0.1, 0.5, and 1.0 μM. Compound 3 killed 17% of MDA-MB-231 cells at 1.0 μM, while the same dose of compound 3 inhibited 95% of MDA-MB-231 cells' invasion. […] The anti-invasive activities of compounds 1-14 are attributed primarily to the inhibition of actin polymerization, not to cell death per se.
Cultrex® Cell Invasion Assay. Anti-invasive activities were measured using Trevigen's Cultrex® Cell Invasion Assay as described in K. Tamilarasan et al., BMC Cell Biol. 2006, 7, 17-30; and P. Borghesani et al., Development. 2002, 6, 1435-1442. About 50 μL of basement membrane extract (BME) coat was added to each well. After incubation for 4 h at 37° C. under 5% CO2, 50,000 MDA-MB-231 cells in 50 μL of serum free RPMI medium were added to each well in the top chamber, along with the test compound at one of several concentrations (0.1, 0.5, 1 μM). About 150 μL of RPMI medium was added to the lower chamber in 10% FBS and penicillin/streptomycin, using fibronectin ([…]) and N-formyl-met-leu-phe (10 nM) as chemoattractants. Cells were allowed to migrate to the lower chamber at 37° C. under 5% CO2. After 24 h, the top and bottom chambers were aspirated and washed with the washing buffer that had been supplied with the kit. About 100 μL of Cell Dissociation Solution/Calcein-AM solution was added to the bottom chamber, and the cells were incubated at 37° C. under CO2 for 1 h. Briefly, the cells internalize calcein-AM, and then the intracellular esterases cleave the AM moiety to generate free calcein. […] The number of cells that had invaded through the BME coat was calculated using a standard curve.

[1] = test system: microvessel density marker CD31 in endothelial colony forming cells (ECFCs); test: Angiogenesis inhibition assay (CD31 in ECFCs); type: cell-based
Description: Effects on Angiogenesis. Angiogenesis inhibition assays were conducted using endothelial colony forming cells (ECFCs). The microvessel density marker CD31 was quantified using confocal laser scanning microscopy and immunohistochemistry.

HeLa cells = test: HeLa cell G2/M assays; type: cell-based
Excerpt: This assay measures HeLa cell proliferation, apoptosis, DNA content and condensation, cyclin B, and phosphor-histone H3.

Row | SMILES | IC50 (MCF7) [µM] | IC50 (PC-3) [µM] | IC50 (MDA-MB-231) [µM] | fold more active against cell invasion than latrunculin A (compound 1) (MDA-MB-231 cells) [fold] | inhibition at 2 µM [1] [%] | inhibition at 10 µM [1] [%] | IC50 ([1]; read-out: IC50 CD31 in ECFCs) [nM] | times greater inhibition against G2-M-phase HeLa cells compared to nocodazole (HeLa cells; various G2_M assays) | factor of greater activity than compound 1, MCF7 proliferation assay (MCF7; assessed at 1 μM) | fold increase in activity against MCF7 versus compound 1 (MCF7; relative to compound 1) [fold] | fold increase in activity against PC-3 versus compound 1 (PC-3; relative to compound 1) [fold] | factor of greater activity than compound 1, MDA-MB-231 proliferation assay (MDA-MB-231; assessed at 1 μM) | factor of greater activity than compound 1, MDA-MB-231 invasion assay (MDA-MB-231 cells; assessed at 1 μM) | IC50 ([1]; read-out: antiangiogenic activity IC50 range) [nM] | dose range of strong growth inhibition of HeLa cells at early interphase (HeLa cells; flow cytometry) [µM] | activity in G2_M assays compared with nocodazole (HeLa cells; less active than compound 11)
1 | COc1ccc(CC(=O)N2C(=O)SC[C@H]2[C@@]2(OC)C[C@H]3C[C@@H](CC[C@H](C)/C=C\C=C\CC/C(C)=C\C(=O)O3)O2)cc1 [Compound 11, 17-O-Methyl-N-(7′-methoxyphenylacetyl)latrunculin A] | 15.4 ± 1.21 | 19.8 | 26.2 ± 3.91 | 4.6 | 100 | 100 | < 43 | 3.5-51.0 times |  |  |  |  |  |  |  | 
2 | C/C1=C/C(=O)O[C@@H]2C[C@@H](CC[C@H](C)/C=C\C=C\CC1)O[C@@](O)([C@@H]1CSC(=O)N1CO)C2 [Compound 14, N-Hydroxymethyllatrunculin A] | 0.12 ± 0.01 | 0.36 | 2.99 ± 0.15 | 2.1 | 100 | 100 | 63 |  | 4 | 4.0 | 10.8 | 1.4 | 2.7 | 40 to 820 | 0.04 to 1.25 | greater activity than did nocodazole
